Reference: article PMC3114339 (Diabetes Care, 2011)

Test system: type 2 diabetic subjects
Assay: Euglycemic glucose clamp for 32 h after s.c. injection of basal insulin
Format: in vivo, human

| Substance | plasma free fatty acid concentrations higher with detemir compared with glargine (throughout the 32-h clamp study, P < 0.001) | plasma free fatty acid concentrations higher with detemir compared with NPH (throughout the 32-h clamp study, P = 0.003) | interquartile range in time of duration of action (plasma glucose >136 mg/dL) (32-h clamp, statistical significance achieved only versus detemir) | mean GIR AUC0–32 h greater with glargine than NPH (32-h euglycemic clamp, 0.4 units/kg s.c., relative difference versus NPH) | mean GIR AUC0–32 h greater with glargine than detemir (32-h euglycemic clamp, 0.4 units/kg s.c., relative difference versus detemir) |
| --- | --- | --- | --- | --- | --- |
| detemir | +26% | +15% | – | – | – |
| glargine | – | – | smaller interquartile range in time of duration of action than NPH and detemir | 31% | 42% |
